{"source": "ChEMBL document CHEMBL1141069", "about": "“Impact of induced fit on ligand binding to the androgen receptor: a multidimensional QSAR study to predict endocrine-disrupting effects of environmental chemicals” (J Med Chem, 2005)", "target": "T1, Androgen receptor (Rattus norvegicus, UniProt P15207)", "T1 sequence (P15207 whole entry)": "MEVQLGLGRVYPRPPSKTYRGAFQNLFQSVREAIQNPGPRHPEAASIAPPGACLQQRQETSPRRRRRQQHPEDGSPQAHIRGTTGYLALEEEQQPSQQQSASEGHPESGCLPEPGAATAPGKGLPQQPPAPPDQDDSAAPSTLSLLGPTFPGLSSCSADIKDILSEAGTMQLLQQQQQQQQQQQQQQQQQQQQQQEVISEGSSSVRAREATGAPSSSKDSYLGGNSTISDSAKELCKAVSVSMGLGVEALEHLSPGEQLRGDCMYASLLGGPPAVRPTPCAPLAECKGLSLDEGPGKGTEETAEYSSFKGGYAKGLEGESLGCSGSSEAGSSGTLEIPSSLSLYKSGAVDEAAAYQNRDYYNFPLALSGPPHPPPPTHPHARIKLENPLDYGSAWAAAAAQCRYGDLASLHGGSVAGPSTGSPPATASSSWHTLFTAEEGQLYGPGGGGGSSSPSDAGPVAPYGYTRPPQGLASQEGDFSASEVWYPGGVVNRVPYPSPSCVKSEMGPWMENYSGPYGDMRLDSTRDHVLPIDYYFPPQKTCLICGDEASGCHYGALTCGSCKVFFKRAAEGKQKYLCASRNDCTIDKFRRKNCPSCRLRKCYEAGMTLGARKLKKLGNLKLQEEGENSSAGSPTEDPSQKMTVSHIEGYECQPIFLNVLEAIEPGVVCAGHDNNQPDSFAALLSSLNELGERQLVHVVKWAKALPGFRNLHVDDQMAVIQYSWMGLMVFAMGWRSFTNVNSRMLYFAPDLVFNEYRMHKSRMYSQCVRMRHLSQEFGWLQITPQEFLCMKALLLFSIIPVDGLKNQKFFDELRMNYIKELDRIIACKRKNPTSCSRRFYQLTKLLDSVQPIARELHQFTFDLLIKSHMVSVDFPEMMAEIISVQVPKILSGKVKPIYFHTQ", "data": [{"smiles": "Clc1ccc(-c2ccc(Cl)cc2Cl)c(Cl)c1", "values": [{"measurement": "IC50", "result": 17, "unit": "µM"}]}, {"smiles": "C[C@]12CC[C@@H]3c4ccc(O)c(O)c4CC[C@H]3[C@@H]1CC[C@@H]2O", "values": [{"measurement": "IC50", "result": 2.57, "unit": "µM"}]}, {"smiles": "CCC(c1ccc(O)c(O)c1)C(CC)c1ccc(O)c(O)c1", "note": "(stereo unspecified)", "values": [{"measurement": "IC50", "result": 37.2, "unit": "µM"}]}, {"smiles": "Cc1ccc2c(c1)CC[C@@H]1[C@@H]2CC[C@]2(C)[C@@H](O)[C@@](C)(O)C[C@@H]12", "values": [{"measurement": "IC50", "result": 37.2, "unit": "µM"}]}, {"smiles": "Cc1ccc2c(c1)CC[C@@H]1[C@@H]2CC[C@]2(C)[C@@H](O)[C@H](O)C[C@@H]12", "values": [{"measurement": "IC50", "result": 53.7, "unit": "µM"}]}, {"smiles": "c1ccc([C@H]2COC[C@H]2c2ccccc2)cc1", "values": [{"measurement": "IC50", "result": 28.8, "unit": "µM"}]}, {"smiles": "CCCCCCCOc1ccc(O)cc1", "values": [{"measurement": "IC50", "result": 14.8, "unit": "µM"}]}, {"smiles": "CCCCCCCCCc1ccc(OCCOCCO)cc1", "values": [{"measurement": "IC50", "result": 18.2, "unit": "µM"}]}, {"smiles": "O=C(c1ccccc1)c1ccc(O)cc1", "values": [{"measurement": "IC50", "result": 182, "unit": "µM"}]}, {"smiles": "C[C@]12CC[C@@H](O)C[C@@H]1CC[C@@H]1[C@@H]2CC[C@]2(C)C(O)CC[C@@H]12", "note": "(stereo partly specified)", "values": [{"measurement": "IC50", "result": 2, "unit": "µM"}]}, {"smiles": "C[C@]12CC[C@@H]3c4ccccc4CC[C@H]3[C@@H]1CC[C@@H]2O", "values": [{"measurement": "IC50", "result": 0.0891, "unit": "µM"}]}, {"smiles": "O=C(c1ccc(O)cc1)c1ccc(O)cc1", "values": [{"measurement": "IC50", "result": 145, "unit": "µM"}]}, {"smiles": "COc1ccc(C(=C(Cl)Cl)c2ccc(OC)cc2)cc1", "values": [{"measurement": "IC50", "result": 49, "unit": "µM"}]}, {"smiles": "COc1ccc(C(=C(Cl)Cl)c2ccc(O)cc2)cc1", "values": [{"measurement": "IC50", "result": 20.4, "unit": "µM"}]}, {"smiles": "O=C1CC(c2ccccc2)Oc2ccc(O)cc21", "note": "(stereo unspecified)", "values": [{"measurement": "IC50", "result": 18.6, "unit": "µM"}]}, {"smiles": "Clc1ccc(-c2ccccc2Cl)cc1", "values": [{"measurement": "IC50", "result": 16.2, "unit": "µM"}]}, {"smiles": "Cl/C=C(\\c1ccc(Cl)cc1)c1ccccc1Cl", "values": [{"measurement": "IC50", "result": 10.5, "unit": "µM"}]}, {"smiles": "CCC(c1ccc(O)cc1)C(CC)c1ccc(OC)cc1", "note": "(stereo unspecified)", "values": [{"measurement": "IC50", "result": 12.9, "unit": "µM"}]}, {"smiles": "CC/C(=C(\\c1ccc(O)cc1)c1ccc(OCCN(C)C)cc1)c1ccccc1", "values": [{"measurement": "IC50", "result": 9.33, "unit": "µM"}]}, {"smiles": "C[C@@]12CCC[C@H]1[C@@H]1CCc3cc(O)ccc3[C@H]1CC2", "values": [{"measurement": "IC50", "result": 41.7, "unit": "µM"}]}, {"smiles": "O=C1C[C@@H]2C(=O)CC[C@H]2[C@@H]2CC[C@H]3CCCC[C@@H]3[C@@H]12", "values": [{"measurement": "IC50", "result": 0.0891, "unit": "µM"}]}, {"smiles": "Oc1ccc(-c2cc(Cl)c(Cl)c(Cl)c2Cl)cc1", "values": [{"measurement": "IC50", "result": 16.2, "unit": "µM"}]}, {"smiles": "C[C@]12CCCC[C@@H]1CC[C@@H]1[C@@H]2CC[C@]2(C)[C@@H](O)CC[C@@H]12", "values": [{"measurement": "IC50", "result": 0.011, "unit": "µM"}]}, {"smiles": "C[C@]12CC[C@@H]3c4cc(O)c(O)cc4CC[C@H]3[C@@H]1CC[C@@H]2O", "values": [{"measurement": "IC50", "result": 8.51, "unit": "µM"}]}, {"smiles": "Oc1c(Cl)cc(-c2cc(Cl)c(O)c(Cl)c2)cc1Cl", "values": [{"measurement": "IC50", "result": 38, "unit": "µM"}]}, {"smiles": "CC1CC2=CC(=O)CC[C@@H]2[C@H]2CC[C@@]3(C)[C@@H](CC[C@]3(C)O)[C@H]12", "note": "(single isomer, unassigned) [MIBOLERONE]", "values": [{"measurement": "IC50", "result": 0.00166, "unit": "µM"}]}, {"smiles": "C[C@H]1CCCC(=O)CCCCCc2cc(O)cc(O)c2C(=O)O1", "note": "(stereo in doubt; form 1) [ZEARALANONE]", "values": [{"measurement": "IC50", "result": 42.7, "unit": "µM"}]}, {"smiles": "C[C@H]1CCCC(=O)CCCCCc2cc(O)cc(O)c2C(=O)O1", "note": "(stereo in doubt; form 2) [ZEARALANONE]", "values": [{"measurement": "IC50", "result": 10, "unit": "µM"}]}, {"smiles": "O=C(O)COc1cc(Cl)c(Cl)cc1Cl", "note": "[2,4,5-TRICHLOROPHENOXYACETIC ACID]", "values": [{"measurement": "IC50", "result": 457, "unit": "µM"}]}, {"smiles": "O=C1CC(c2ccc(O)cc2)Oc2ccccc21", "note": "(stereo unspecified) [4'-HYDROXY-FLAVANONE]", "values": [{"measurement": "IC50", "result": 57.5, "unit": "µM"}]}, {"smiles": "O=C(/C=C/c1ccccc1)c1ccc(O)cc1", "note": "[4'-HYDROXYCHALCONE]", "values": [{"measurement": "IC50", "result": 57.5, "unit": "µM"}]}, {"smiles": "O=C(/C=C/c1ccc(O)cc1)c1ccccc1", "note": "[4-HYDROXYCHALCONE]", "values": [{"measurement": "IC50", "result": 47.9, "unit": "µM"}]}, {"smiles": "O=c1cc(-c2ccccc2)oc2ccc(O)cc12", "note": "[6-HYDROXYFLAVONE]", "values": [{"measurement": "IC50", "result": 182, "unit": "µM"}]}, {"smiles": "O=c1cc(-c2ccccc2)oc2cc(O)ccc12", "note": "[7-HYDROXYFLAVONE]", "values": [{"measurement": "IC50", "result": "> 42.7", "unit": "µM"}]}, {"smiles": "Oc1ccc(/C=C/c2ccccc2)cc1", "note": "[(E)-4-STYRYLPHENOL]", "values": [{"measurement": "IC50", "result": 41.7, "unit": "µM"}]}, {"smiles": "C[C@]12CCC(=O)C=C1CC[C@@H]1[C@@H]2[C@@H](O)C[C@]2(C=O)[C@@H](C(=O)CO)CC[C@@H]12", "note": "[ALDOSTERONE]", "values": [{"measurement": "IC50", "result": "> 42.7", "unit": "µM"}]}, {"smiles": "Oc1ccc([C@H]2COc3cc(O)ccc3C2)cc1", "note": "[AUS-131]", "values": [{"measurement": "IC50", "result": 74.1, "unit": "µM"}]}, {"smiles": "O=C(c1ccccc1)c1ccccc1", "note": "[BENZOPHENONE]", "values": [{"measurement": "IC50", "result": 129, "unit": "µM"}]}, {"smiles": "CC(C)(c1ccc(O)cc1)c1ccc(O)cc1", "note": "[BISPHENOL A]", "values": [{"measurement": "IC50", "result": 74.1, "unit": "µM"}]}, {"smiles": "O=C(/C=C/c1ccccc1)c1ccccc1", "note": "[CHALCONE]", "values": [{"measurement": "IC50", "result": 64.6, "unit": "µM"}]}, {"smiles": "ClC1=C(Cl)C2(Cl)C3C(Cl)C(Cl)CC3C1(Cl)C2(Cl)Cl", "note": "(stereo unspecified) [CHLORDANE]", "values": [{"measurement": "IC50", "result": 10, "unit": "µM"}]}, {"smiles": "CCN(CC)CCOc1ccc(/C(=C(\\Cl)c2ccccc2)c2ccccc2)cc1", "note": "[CLOMIPHENE]", "values": [{"measurement": "IC50", "result": 13.5, "unit": "µM"}]}, {"smiles": "C[C@]12CC[C@H]3[C@@H](CCC4(OC(=O)c5ccccc5)CC(=O)CC[C@]34C)[C@@H]1CC[C@@H]2O", "note": "(stereo partly specified) [DHT BENZOATE]", "values": [{"measurement": "IC50", "result": 0.257, "unit": "µM"}]}, {"smiles": "COc1cc(C(=C(Cl)Cl)c2ccc(O)cc2)ccc1O", "note": "[DIHYDROXYMETHOXYCHLOROLEFIN]", "values": [{"measurement": "IC50", "result": 6.31, "unit": "µM"}]}, {"smiles": "C/C(=C(/C)c1ccc(O)cc1)c1ccc(O)cc1", "note": "[DIMETHYLSTILBESTROL]", "values": [{"measurement": "IC50", "result": 14.1, "unit": "µM"}]}, {"smiles": "O=S1OCC2C(CO1)C1(Cl)C(Cl)=C(Cl)C2(Cl)C1(Cl)Cl", "note": "(stereo unspecified) [ENDOSULFAN]", "values": [{"measurement": "IC50", "result": 23.4, "unit": "µM"}]}, {"smiles": "O=C1CC(c2ccccc2)Oc2ccccc21", "note": "(stereo unspecified) [FLAVANONE]", "values": [{"measurement": "IC50", "result": 55, "unit": "µM"}]}, {"smiles": "O=c1cc(-c2ccccc2)oc2ccccc12", "note": "[FLAVONE]", "values": [{"measurement": "IC50", "result": 77.6, "unit": "µM"}]}, {"smiles": "O=c1c(-c2ccc(O)cc2)coc2cc(O)cc(O)c12", "note": "[GENISTEIN]", "values": [{"measurement": "IC50", "result": 85.1, "unit": "µM"}]}, {"smiles": "C[C@]12CCC(=O)C=C1CC[C@@H]1[C@@H]2[C@@H](O)C[C@@]2(C)[C@H]1CC[C@]2(O)C(=O)CO", "note": "[HYDROCORTISONE]", "values": [{"measurement": "IC50", "result": 182, "unit": "µM"}]}, {"smiles": "Oc1ccc(OCc2ccccc2)cc1", "note": "[MONOBENZONE]", "values": [{"measurement": "IC50", "result": 234, "unit": "µM"}]}, {"smiles": "COc1ccc2c(c1)CCC(c1ccccc1)=C2c1ccc(OCCN2CCCC2)cc1", "note": "[NAFOXIDINE]", "values": [{"measurement": "IC50", "result": 12.9, "unit": "µM"}]}, {"smiles": "ClC(Cl)=C(c1ccc(Cl)cc1)c1ccccc1Cl", "note": "[O,P'-DDE (1,1-(O,P'-DICHLORODIPHENYL)-2,2 DICHLOROETHENE)]", "values": [{"measurement": "IC50", "result": 20.4, "unit": "µM"}]}, {"smiles": "Oc1ccc(/C=C/c2ccc(O)cc2)cc1", "note": "[TRANS-4,4'-DIHYDROXYSTILBENE]", "values": [{"measurement": "IC50", "result": 83.2, "unit": "µM"}]}, {"smiles": "C[C@]12C=CC3=C4CCC(=O)C=C4CCC3C1CC[C@@H]2O", "note": "(stereo partly specified) [TRENBOLONE]", "values": [{"measurement": "IC50", "result": 0.00263, "unit": "µM"}]}, {"smiles": "COc1cc(C=O)ccc1O", "note": "[VANILLIN]", "values": [{"measurement": "IC50", "result": "> 427", "unit": "µM"}]}]}
